Data as given in patent US5721229A, “Soluble forms of cephalosporins and treatment of animals” (Veterinary Pharmacy Corporation, priority 1995, dated 1998).
Like-named read-outs stand apart in the source and are kept apart here.

Assays:
[1] = cited from earlier work
[2] = pH 4.5; cited from earlier work
[3] = tested on: Actinobacillis pleuropneumonia Type 7
Method: (§1) The mixture and solution of the invention was tested in 100 to 200 pound pigs. […] A 30 pig pen was used as a non-treated control group to measure the efficacy of the treatment.

all bacteria = experiment: Sensitivity results by the University Diagnostic Laboratory, all bacteria (Example 6 table)
Method: as §1

Method for Pasturella multocida: as §1
From the text for Step suis type 2: A farm was selected which was known to have problems with Step suis type 2 in its nursery pigs. The experiment involved two groups of 30 pigs, each group was in the same room, but in separate pens. Each pig was individually tagged and a tonsilar swab was done on day one and day seven. Cultures were run on all the swabs.
Method for Streptococcus suis Sp.: as §1

Compound: CC1(C)S[C@@H]2[C@H](NC(=O)[C@H](N)c3ccccc3)C(=O)N2[C@H]1C(=O)O [ampicillin]
- pH on dissolution with sodium carbonate ([1]; 95 mole-% of sodium carbonate): 8.3
- Mole-% of sodium carbonate sufficient to dissolve ([1]; pH 8.3): 95 mole-%

Compound: CC1=C(C(=O)O)N2C(=O)[C@@H](NC(=O)[C@H](N)c3ccccc3)[C@H]2SC1 [cephalexin monohydrate]
- Neutrally charged fraction [2]: 100%

Compound: CC1=C(C(=O)O)N2C(=O)[C@@H](NC(=O)[C@H](N)c3ccccc3)[C@H]2SC1 [cephalexin, α-aminobenzyl-3-desacetoxycephalosporin]
- Sensitivity of the organism (Step suis type 2; isolates from treated group): sensitive
- Sensitivity of the organism (Step suis type 2; isolates from untreated control group): sensitive
- Sensitivity to cephalexin (Pasturella multocida): showed sensitivity
- Sensitivity to cephalexin (Streptococcus suis Sp.): showed sensitivity
- Sensitivity to cephalexin [3]: showed sensitivity
- Sensitivity results by the University Diagnostic Laboratory (all bacteria; control group of 30 pigs): sensitive to cephalexin
- Sensitivity results by the University Diagnostic Laboratory (all bacteria; treated group of 970 pigs): sensitive to cephalexin

Compound: CC1(C)S[C@@H]2[C@H](NC(=O)[C@H](N)c3ccccc3)C(=O)N2[C@H]1C(=O)O [sodium ampicillin]
- pH of aqueous solution ([1]; aqueous solution): ~9.5
